According to patent publication US12474337B2, “Therapeutic agent for autoimmune diseases or allergy, and method for screening for the therapeutic agent” (OSAKA UNIVERSITY, priority 2009, dated 2025):

Tested on: dendritic cells
Assay: Transwell overlaid with type 1 collagen or HMVEC-dLy monolayer, chemotaxis to CCL21 with and without Sema3A, after myosin II or Rho kinase inhibition
Type: cell-based, mouse
Method: An uncoated Transwell (pore diameter 5.0 μm; Corning) was placed in a 24-well plate containing CCL21 or CSCL12 in 0.6 ml of RPM1 containing 0.1% BSA. 1×10^5 dendritic cells in 0.1 ml of solution were added to the upper well of the Transwell, and incubated for 3 hours at 37° C. The cells in the […] chamber were ablated for 5 minutes with 5 mM PBS-EDTA, and counted by Guava. Fibronectin ([…]), type 1 collagen (3.0 mg/ml) or lymphatic endothelial cells were laid over the membrane of the top chamber for purposes of in vitro migration assay. In brief, 2×10^4 SVEC4-10 or HMVEC-dLy cells were seeded on the top or bottom surface of a Transwell insert coated with 2 μg/ml of fibronectin. […]
BMDC cells that had been treated for 30 minutes at 37° C. with 50 μM of blebbistatin or 30 μM of Y-27632 were applied to the upper chamber of a Transwell (pore diameter: 5 μm) overlaid with 3 mg/ml of type 1 collagen (left panel) and an HMVEC-dLy monolayer (right panel), and chemotaxis in response to CCL21 was measured in the […] chamber with and without Sema3A. The overall difference between groups was evaluated by one-way ANOVA. […]
A Transwell test was performed by the following methods. […] The cells in the lower chamber were ablated for 5 minutes by treatment with 5 mM of PBS-EDTA, and counted by Guava ViaCount assay on a Guava PCA system. […]

C[C@@H](N)[C@H]1CC[C@H](C(=O)Nc2ccncc2)CC1 [Y-27632]
effect of Sema3A on dendritic cell trafficking after inhibitor treatment (DC cells treated 30 minutes at 37° C. with 30 μM Y-27632): disappeared

Cc1ccc2c(c1)C(=O)C1(O)CCN(c3ccccc3)C1=N2 (centres unmarked) [blebbistatin]
effect of Sema3A on dendritic cell trafficking after inhibitor treatment (DC cells treated 30 minutes at 37° C. with 50 μM blebbistatin): disappeared
